“Also recorded” adds a separate entry of the source.
Experiments:
Myo5bΔINT mice = assay: Daily LPAR agonist treatment of tamoxifen-induced Myo5bΔINT mice (MVID model), intestinal histology and immunostaining; type: in vivo, mouse; conditions: for Hmgcs2 protein expression in jejunal epithelial cells / apical localization of transporters NHE3 and SGLT1: immunostaining; for Hmgcs2 protein expression in jejunal epithelial cells: once daily ip for 4 days; for tuft cell differentiation (tuft cell population) in Myo5bΔINT intestine: once a day for 4 days, LPA 3 mg/kg, Compound-1 1 mg/kg, UCM-05194 10 mg/kg, GRI977143 3 mg/kg; for apical localization of transporters NHE3 and SGLT1: small intestine, daily treatment
Method: All animal studies were performed with approval from the Institutional Animal Care and Use Committee of Vanderbilt University Medical Center (M2000104). At the 8-10 week of age, Myo5bΔINT mice and littermate controls (VilCre^ERT2; Myo5b^+/flox and Myo5b^flox/flox) received a single dose of tamoxifen (100 mg/kg) by intraperitoneal (IP) injection (day 0) (Weis et al.). […] Compound-1 was dissolved in PBS, and UCM-05194 was dissolved in Captisol solution. Body weight changes and diarrhea symptoms were investigated daily. On day 4, mice were euthanized and the duodenum (0-8 cm from the pyloric ring), jejunum (8 cm following the duodenum), ileum (distal 8 cm from the ileocecal junction), and colon were collected for pathological assessment as previously reported (Kaji et al.).
Immunofluorescence staining and imaging were performed as previously reported (Kaji, JCI Insight). Four-μm-thin sections were deparaffinized and rehydrated before performing antigen retrieval using 10 mM sodium citrate buffer, contained 0.05% Tween 20 (pH 6), in a pressure cooker for 15 minutes. After cooling down on ice, slides were rinsed in PBS and blocked with protein block serum-free (Dako) for 1 hour at r/t or overnight at 4° C. The primary antibodies against NHE3 (1:200), SGLT1 (0.5 μg/ml) (Kaji et al., 2020), DCLK1 (AF647-conjugated, 1:2000), KRT19 (1:250), CD3, HMGCS2 (1:50), or Actg1 (1:100) were diluted in Dako diluent in background reducing compound (S3022) and incubated on sections overnight at 4° C. After rinsing in 0.1 M PBS, the slides were incubated with the corresponding secondary antibodies conjugated with fluorescence (Jackson Laboratory) for 1 hour. Slides were rinsed in 0.1 M PBS and counterstained with Hoechst 33342 (4 mM, Thermo Fisher Scientific, Waltham, MA) in PBS. The stained slides were cover-slipped with ProLong Gold Antifade Reagent (P36934, Thermo Fisher). Whole slide images were scanned by a Versa imager 200 with a 20× objective (Leica Biosystems, Buffalo Grove, IL) in the Vanderbilt Digital Histology Shared Resource (DHSR). Some immunofluorescence images were taken by using a Zeiss Axio Imager M2 with ApoTome (Carl Zeiss Microscopy, LLC, White Plains NY).
The DIA code to quantify the tuft cell populations was developed at the DHSR on Python platform as described previously (Kaji 2021).

[1] = test system: MYO5B(P663L) pig enteroids; assay: Tuft cell differentiation in pig MVID model enteroids; type: cell-based; conditions: 100 nM daily in ODM, 5 days, vs vehicle (PBS)
Method: Pig enteroids were expanded in Matrigel (Corning) immersed in IntestiCult Organoid Growth Medium (Human, OGM, Stem Cell Technology). Organoid growth was assessed in 96-well plate and continuously imaged whole wells using a JuLi™ Stage (NanoEn Tek Inc., Waltham, MA). Organoid perimeter was measured by using FIJI, and organoid forming rate was calculated as sphere numbers per plated cell numbers 7 days after the passaging. N=7-9 wells from each genotype. In a different set of culture, tuft cells were differentiated in Organoid Differentiation Medium (ODM, Stem Cell Technology) for 5 days, following after 2 days culture in OGM after passaging. MYO5B(P663L) enteroids were incubated with 100 nM Compound-1 or vehicle (PBS) in ODM.
Organoids were fixed with 10% NBF for 30 min in Matrigel domes, rinsed with cold PBS containing 0.1% FBS and centrifuged to remove Matrigel. Fixed organoids were blocked with 5% normal donkey serum in PBS containing 0.3% Triton X-100 for 2 hours and incubated with the pGirdin (1:100) or POU2F3 (1:200) antibody diluted with the blocking solution for 2 days at 4° C. After rinsing in PBS with Triton X-100, donkey anti-rabbit Cy3 antibody (2.5 μg/ml), Alexa Fluor 488 phalloidin (1:400, A12379, Thermo Fisher), and Hoechst 33342 (2 mM) were applied for 2 hr. […]

Myo5bΔINT enteroids = assay: Bulk transcriptional analysis (RNA-seq) in MYO5B deficient mouse enteroids; type: cell-based; conditions: 100 nM
Method: Enteroids were generated from jejunal crypts of adult VilCre^ERT2; Myo5b^flox/flox and VilCre^ERT2; Myo5b^flox/G519R mice (Burman & Momoh CMGH) without tamoxifen treatment and passaged twice with mechanical breakdown. One day after the second passage, 1 μM 4-OH-tamoxifen (SML1666, Sigma) was added into the IntestiCult Organoid Growth Medium (Mouse, Stem Cell Technology) and incubated for 24 hours to induce Cre recombinase. After the incubation with 4-OH-tamoxifen (induced KO or G519R) or the vehicle, 100% ethanol (Control), the medium was replaced with the modified Minigut medium (Mahe et al., 2013) containing 5% Noggin conditioned medium and 5% R-spondin conditioned medium (Vanderbilt Organoid Core) to withdraw Wnt and EGF for enhancing cell differentiation (Kaji JCI Insight). Some iKO enteroids were incubated with 100 nM Compound-1 for 2 days in differentiation conditions.
Following differentiation, enteroids were placed in Organoid Harvesting Solution (3700-100-01; Cultrex) for 1 hr at 4° C. Enteroids were washed with PBS and centrifuged. Enteroid pellets were immersed in TRIzol reagent (15596026; Invitrogen) supplemented with glycogen (G1767; Sigma Aldrich) and stored at −20° C. Total RNA was extracted from enteroids following the manufacturer's instructions. RNA-sequencing with 4 samples per group and differential expressing gene analysis were performed in Novogene.

[2] = Plasma level after bolus intraperitoneal injection in wild type adult mice; type: in vivo, mouse
Solubility / stability = type: physicochemical; conditions: as a sodium salt
human LPAR5 = human LPAR5 (Homo sapiens, UniProt Q9H1C0); conditions: cited from earlier work
human LPAR3 = target: T1, human LPAR3 (Homo sapiens, UniProt Q9UBY5); conditions: cited from earlier work
T1 sequence (Q9UBY5 1-353): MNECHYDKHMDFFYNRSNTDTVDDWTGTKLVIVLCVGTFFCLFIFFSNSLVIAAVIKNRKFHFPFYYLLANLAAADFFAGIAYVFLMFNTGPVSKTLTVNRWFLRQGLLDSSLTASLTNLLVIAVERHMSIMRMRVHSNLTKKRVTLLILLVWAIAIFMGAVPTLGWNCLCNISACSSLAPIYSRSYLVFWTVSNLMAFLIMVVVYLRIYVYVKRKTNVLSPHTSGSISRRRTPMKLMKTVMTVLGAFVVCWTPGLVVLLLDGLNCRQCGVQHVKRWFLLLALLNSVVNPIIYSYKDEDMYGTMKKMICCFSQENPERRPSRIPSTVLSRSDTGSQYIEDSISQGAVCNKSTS

[3] = natural LPA; background statement; cited from earlier work

Sequence of human LPAR5 (Q9H1C0 whole entry): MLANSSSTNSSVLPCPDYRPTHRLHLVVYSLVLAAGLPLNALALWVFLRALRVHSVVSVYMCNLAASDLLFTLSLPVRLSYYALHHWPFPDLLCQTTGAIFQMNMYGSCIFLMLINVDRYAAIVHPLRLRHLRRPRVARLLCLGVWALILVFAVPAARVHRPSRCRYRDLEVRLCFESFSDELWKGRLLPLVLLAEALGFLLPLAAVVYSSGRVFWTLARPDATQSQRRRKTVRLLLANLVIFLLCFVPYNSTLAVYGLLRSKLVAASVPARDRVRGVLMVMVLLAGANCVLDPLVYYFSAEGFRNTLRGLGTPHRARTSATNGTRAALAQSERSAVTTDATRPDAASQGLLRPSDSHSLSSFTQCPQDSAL

Which results are given for CCCCCCCCCCCCCCCCOC(CCP([O-])(O)=S)COC.[Na+] (stereo not shown) [Compound-1]?
Intestinal villus/crypt ratio (Myo5bΔINT mice; Compound-1 1 mg/kg daily, intraperitoneal, 4 days, vs vehicle): significantly improved; increase of villus/crypt ratio in the small intestine (Myo5bΔINT mice; daily Compound-1 treatment): 150%; effect of subcutaneous tablet insertion (continuous delivery) (Myo5bΔINT mice; high dose 2 mg/mouse per tablet): no consistent effect; Hmgcs2 protein expression in jejunal epithelial cells (Myo5bΔINT mice): remarkably upregulated; effect of subcutaneous tablet insertion (continuous delivery) (Myo5bΔINT mice; low dose 0.2 mg/mouse per tablet): no consistent effect; tuft cell differentiation (tuft cell population) in Myo5bΔINT intestine (Myo5bΔINT mice): reversed; also recorded: significantly increased; apical localization of transporters NHE3 and SGLT1 (Myo5bΔINT mice): partially recovered; also recorded: partially reversed to normal; body weight loss (Myo5bΔINT mice; within 4 days, similar to vehicle-treated group): approximately 14%; tuft cell numbers in MYO5B(P663L) enteroids [1]: significantly increased; Nox1 expression decreased by MYO5B loss (Myo5bΔINT enteroids; 2 days): reversed; inflammation- and infection-related genes (Nlrp1b, Ldhb, Hspg2, Trim30) increased by MYO5B loss (Myo5bΔINT enteroids; 2 days during differentiation): significantly reversed; Hmgcs2 expression in enteroids with and without Compound-1 (Myo5bΔINT enteroids; 2 days, control vs MYO5B deficient enteroids): comparable; Compound in plasma ([2]; 1 hour after bolus ip injection 10 mg/kg): detected; plasma concentration (disappeared) ([2]; within 6 hours after bolus ip injection 10 mg/kg): < 10 ng/mL; solubility in water (Solubility / stability): highly soluble; EC50 (human LPAR5): 260 pM; effect on human LPAR3 (human LPAR3): agonistic effect

What does the source list for CCCCCCCC/C=C\CCCCCCCC(=O)OCC(O)COP(=O)(O)O (stereo not shown) [LPA, 18:1 1-oleoyl-Lyso PA, reference compound]?
fatty acid oxidation or lipogenesis pathways (transcription) (Myo5bΔINT mice; RNA-seq of jejunal epithelial cells, in vivo LPA (18:1)): did not reverse; transcription of Hmgcs2 in jejunal epithelial cells (Myo5bΔINT mice; RNA-seq, vs vehicle-treated Myo5bΔINT or healthy littermate mice): significantly upregulated; Hmgcs2 protein expression in jejunal epithelial cells (Myo5bΔINT mice): further increased; tuft cell differentiation (tuft cell population) in Myo5bΔINT intestine (Myo5bΔINT mice): reversed; apical localization of transporters NHE3 and SGLT1 (Myo5bΔINT mice): similarly improved; solubility and stability [3]: poor

For O=C(CCCc1ccccc1)O[C@H](CBr)COP(=O)(O)O [UCM-05194, reference compound], which intestinal histology (Myo5bΔINT mice; once a day for 4 days after tamoxifen) is on record?
The intestinal histology was “did not significantly alter”.

And the “tuft cell differentiation (tuft cell population) in Myo5bΔINT intestine” value (Myo5bΔINT mice)?
Its value is “no significant effect”.
